pIC50: −log10 of the molar value.
Assays:
[1] = molecular target: T1, Protein Mdm4 (Homo sapiens, UniProt O15151); test: Inhibition of human MDM4 (1 to 116 residues) incubated for 1 hrs by fluorescence polarization assay
T1 sequence (O15151 whole entry): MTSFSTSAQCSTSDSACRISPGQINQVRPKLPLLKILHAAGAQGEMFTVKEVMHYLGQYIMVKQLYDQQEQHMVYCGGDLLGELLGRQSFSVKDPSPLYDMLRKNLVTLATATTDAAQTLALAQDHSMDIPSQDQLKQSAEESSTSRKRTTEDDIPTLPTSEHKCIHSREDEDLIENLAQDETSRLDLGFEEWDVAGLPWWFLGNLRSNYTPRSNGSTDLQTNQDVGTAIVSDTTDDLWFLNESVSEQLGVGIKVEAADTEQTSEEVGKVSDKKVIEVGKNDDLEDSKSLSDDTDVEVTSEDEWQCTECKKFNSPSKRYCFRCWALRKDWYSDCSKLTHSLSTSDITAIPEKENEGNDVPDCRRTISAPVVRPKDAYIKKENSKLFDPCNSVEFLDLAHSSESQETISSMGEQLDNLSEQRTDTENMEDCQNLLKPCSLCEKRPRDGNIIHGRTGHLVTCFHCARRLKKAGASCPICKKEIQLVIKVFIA

[2] = molecular target: T2, E3 ubiquitin-protein ligase Mdm2 (Homo sapiens, UniProt Q00987); test: Inhibition of human MDM2 incubated for 1 hrs by TR-FRET assay
T2 sequence (Q00987 whole entry): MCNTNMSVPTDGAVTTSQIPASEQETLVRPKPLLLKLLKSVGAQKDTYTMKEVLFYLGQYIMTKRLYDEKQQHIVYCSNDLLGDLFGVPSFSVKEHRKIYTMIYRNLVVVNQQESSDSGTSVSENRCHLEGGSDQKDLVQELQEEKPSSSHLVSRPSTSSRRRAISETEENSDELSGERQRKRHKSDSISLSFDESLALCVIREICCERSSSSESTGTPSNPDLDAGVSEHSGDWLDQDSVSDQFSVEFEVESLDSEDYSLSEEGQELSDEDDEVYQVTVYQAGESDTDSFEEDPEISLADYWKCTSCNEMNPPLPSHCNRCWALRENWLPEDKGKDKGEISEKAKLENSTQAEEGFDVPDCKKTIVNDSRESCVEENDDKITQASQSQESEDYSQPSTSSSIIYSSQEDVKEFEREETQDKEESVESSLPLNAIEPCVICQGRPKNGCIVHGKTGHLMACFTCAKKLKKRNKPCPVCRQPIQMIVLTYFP

[3] = tested on: RS4-11; test: Anticancer activity against human RS4-11 cells assessed as cell viability incubated for 3 days by CellTiterGlo assay; assay type: functional, cell-based; settings: RS4-11, 72 h
[4] = molecular target: Tumour suppressor p53/oncoprotein Mdm2 (Homo sapiens, UniProt Q00987); test: Inhibition of human MDM2 to p53 (unknown origin) protein protein interaction; assay type: protein assay
Sequence of Tumour suppressor p53/oncoprotein Mdm2 (P04637 whole entry, the tested form may be a part): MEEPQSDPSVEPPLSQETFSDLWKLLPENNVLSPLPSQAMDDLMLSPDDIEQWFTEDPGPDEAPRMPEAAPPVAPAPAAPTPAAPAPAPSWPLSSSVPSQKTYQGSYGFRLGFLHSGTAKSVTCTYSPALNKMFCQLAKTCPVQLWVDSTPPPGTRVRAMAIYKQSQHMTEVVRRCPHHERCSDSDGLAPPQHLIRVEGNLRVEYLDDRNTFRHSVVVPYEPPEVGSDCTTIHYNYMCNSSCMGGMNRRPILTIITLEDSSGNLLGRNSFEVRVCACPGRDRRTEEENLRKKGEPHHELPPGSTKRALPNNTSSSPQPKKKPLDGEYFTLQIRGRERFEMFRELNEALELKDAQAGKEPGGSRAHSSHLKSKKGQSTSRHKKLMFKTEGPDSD
Sequence of Tumour suppressor p53/oncoprotein Mdm2 (Q00987 whole entry, the tested form may be a part): as the sequence (Q00987 whole entry) above

[5] = Displacement of FAM labeled PMI from human MDM2 (1 to 114 residues) by fluorescence polarization assay
[6] = molecular target: T2, E3 ubiquitin-protein ligase Mdm2; test: Displacement of FAM labeled p53 fragment from human MDM2 (1 to 116 residues) incubated for 1 hrs by fluorescence polarization assay

| pIC50 [1] | pIC50 [2] | pIC50 [3] | pIC50 [4] | pIC50 [5] | pIC50 [6] | Structure (SMILES) |
| --- | --- | --- | --- | --- | --- | --- |
| 8.05 | 8.05 | < 4.30 | 8.05 | – | – | CC(C)[C@@H]1NC(=O)Cn2cc(nn2)C[C@H](C(N)=O)NC(=O)[C@@H]2C[C@@H](CN2C(=O)c2ccccc2)NC(=O)[C@H](Cc2cccc(C(F)(F)F)c2)NC(=O)[C@@H](C(C)C)CNC(=O)CNC(=O)[C@H](Cc2ccccc2)NC(=O)[C@H](Cc2c[nH]c3ccccc23)NC1=O |
| – | – | – | – | 5.70 | 7.05 | CC(C)[C@@H]1NC(=O)Cn2cc(nn2)CC(C(N)=O)NC(=O)[C@@H]2C[C@@H](CN2C(=O)c2ccccc2)NC(=O)[C@H](Cc2cccc(C(F)(F)F)c2)NC(=O)[C@@H](C(C)C)CNC(=O)CNC(=O)[C@H](Cc2ccccc2)NC(=O)[C@H](Cc2c[nH]c3ccccc23)NC1=O (stereo partly specified) |
| – | – | – | – | 4.77 | 5.09 | CC[C@H](C)[C@@H]1NC(=O)[C@H](C(C)C)NC(=O)Cn2cc(nn2)CC(C(N)=O)NC(=O)[C@@H](Cc2ccsc2)NC(=O)[C@H](Cc2ccc(Cl)cc2)NC(=O)C[C@@H](C(=O)O)NC(=O)[C@H](CCSC)NC(=O)[C@H](CC(=O)O)NC1=O (stereo partly specified) |
| 7.37 | 7.37 | < 4.30 | – | – | – | CC(C)[C@@H]1NC(=O)Cn2cc(nn2)C[C@@H](C(N)=O)NC(=O)[C@@H]2C[C@@H](CN2C(=O)c2ccccc2)NC(=O)[C@H](Cc2cccc(C(F)(F)F)c2)NC(=O)[C@@H](C(C)C)CNC(=O)CNC(=O)[C@H](Cc2ccccc2)NC(=O)[C@H](Cc2c[nH]c3ccccc23)NC1=O |
